In US12522827B2 (priority 2021, dated 2026):
l = locked nucleic acid (LNA); d = 2'-deoxy (DNA)

Experiments:
[1] = system: A/Hong Kong/8/68 (HK68) (H3N2) virus; format: cell-based, Influenza A/Hong Kong/8/68 (HK68) H3N2 virus
PR8 (H1N1) virus = format: cell-based, Influenza A/PR/8/34 (PR8) H1N1 virus
wild-type PR8 virus = system: wild-type PR8 virus; parameters: species or system Balb/C female mice; details: mouse, in vivo

## AGAcagcgaccaaAAG (AGACAGCGACCAAAAG; antisense; sugars from the 5' end l3 d10 l3, backbone and methylation of C not given here) [LNA8a]
[1]
  drop in viral production (antiviral activity): up to 3 logs
PR8 (H1N1) virus
  drop in viral production (antiviral activity): up to 3 logs

## AccAaaAGaaT (ACCAAAAGAAT; antisense; sugars from the 5' end lddlddllddl, backbone and methylation of C not given here) [LNA1]
[1]
  effect on viral titer / viral production: little to no effect
PR8 (H1N1) virus
  effect on viral titer / viral production: little to no effect

## CATACTTA [LNA5]
[1]
  effect on viral titer / viral production: failed to inhibit viral production
PR8 (H1N1) virus
  effect on viral titer / viral production: failed to inhibit viral production

## CCAAAAGA [LNA4]
[1]
  effect on viral titer / viral production: little to no effect
PR8 (H1N1) virus
  effect on viral titer / viral production: little to no effect

## CagaCaCGaCCaaAA (CAGACACGACCAAAA; antisense; sugars from the 5' end ldddldlldllddll, backbone and methylation of C not given here) [LNA6]
PR8 (H1N1) virus
  titer deficits: greater than 2 log10

## TACTtactgacaGCC [LNA9]
[1]
  drop in viral production (antiviral activity): ~4 logs
PR8 (H1N1) virus
  antiviral response, cells pre-treated: greater than 4 logs
  drop in viral production (antiviral activity): ~5 logs
  suppression of viral titer, post-infection treatment: greater than 3 logs
  viral inhibition at the lowest dilution: greater than 2 logs
wild-type PR8 virus
  clinical signs of disease: little-to-no clinical signs of disease
  protection from fatal influenza disease (survival): completely protected
  recovery of weight: fully recovered to pre-infection weight
  weight loss: minimal weight loss

## TagCAtActtA (TAGCATACTTA; antisense; sugars from the 5' end lddlldldddl, backbone and methylation of C not given here) [LNA3]
[1]
  effect on viral titer / viral production: failed to inhibit viral production
PR8 (H1N1) virus
  effect on viral titer / viral production: failed to inhibit viral production
